Our source for the inhibition values is patent US7018642B2 (The Procter & Gamble Company, priority 2001, dated 2006).

Common to all, as to assay type: cell-based
For assay [1], the system named is P. aeruginosa strain PAO1. Description: Biofilm prevention screen (96-well microplate, crystal violet). Conditions: Pseudomonas aeruginosa, positive = prevention, negative = enhancement of biofilm formation, quadruplicate, read-out: average percentage reduction of biofilm formed relative to DMSO controls. The method, then:
(§1) Overnight cultures of 3 mL are made of P. aeruginosa strain PAO1 (grown in R2A medium (Handbook of Microbiological Media; CRC Press, 1997, second edition, R. M. Atlas, ed.), modified to omit Mg^2+ but to include 0.3–0.5% fructose (pH 7.0) and 3 μM ferrous ammonium sulfate), P. fluorescens strain ATCC 13525 (grown in R2A modified to omit Mg^2+ but to include 0.3–0.5% sodium pyruvate (pH 7.0)), S. epidermidis strain ATCC 35984 (grown in a ¼ dilution of TSB (Handbook of Microbiological Media; CRC Press, 1997, second edition, R. M. Atlas, ed.) supplemented with 1% fructose (pH 7.0) and 3 μM ferrous ammonium sulfate). To each type of growth medium, HEPES (pH 7.3) is optionally added to a final concentration of 10 mM.
(§2) To PS, PVC, or PP (preferably PP or PVC) round-bottom, 96-well microplates containing 100 μl per well of the respective growth medium as described above, compounds to be tested (dissolved in DMSO) are added and mixed, to give a final concentration of 250–500 μM. These microplates then also are used to make successive dilutions of the compounds in the same respective growth medium to yield microplates containing final concentrations of, for example, 160 μM and 32 μM of the same set of compounds. Control wells are included in the dilution series that contain only DMSO. From the 3 ml overnight cultures, each of the three dilution plate sets is inoculated with 5 μl per well of a 1:1 dilution in the same liquid growth media of the appropriate culture. The covered plate is then incubated with shaking, at 30° C. (for P. aeruginosa or P. fluorescens) or 37° C. (for S. epidermidis), at 200 rpm, for 16–26 hours, in a humidity controlled environment.
(§3) Cells present in biofilm attached to the microplate surface are stained with CV either after removal of the liquid from each well, followed by rinsing three times (aspiration and addition) with 150 μl per well phosphate buffered saline solution (PBS) and final addition of 100 μl per well of PBS, or by direct addition of stain to bacterial cultures without rinsing. To 100 μl per well of PBS or of bacterial culture, 25 μl/well of 1% CV solution (in ˜10% ethanol) is added. After incubation at room temperature for 45 minutes, the dye solution is removed from the plates. Residual dye is immediately removed by gentle rinsing with a stream of deionized water by filling and inverting the plates 4–5 times, or by using an automated pipettor. Rinsed plates are air-dried at room temperature for 0.5–2 hours. Bound dye is extracted by the addition of 150 μL per well of 95% ethanol, followed by vigorous mixing for 10–15 seconds and incubation for 45 minutes at room temperature without shaking. Subsequently, either undiluted or diluted (in ethanol) samples of extracted CV are transferred to flat bottom, polystyrene microtiter plates and absorbances at 586 nm were measured in a microplate reader. Readings from wells containing compounds are compared to the average of data from control wells that contain only DMSO. Replicate samples are measured, and results are reported as averages of the replicate well data points.
(§4) Data are expressed in terms of the average percentage reduction of biofilm formed in the presence of each compound, relative to the DMSO controls, for quadruplicate samples. Assays are run using the three compound concentrations indicated. Positive numbers indicate prevention of biofilm formation by a compound, and negative numbers indicate enhancement of biofilm formation by a compound (percentage coefficients of variation are ≦10%).

Assay [2] deals with S. epidermidis strain ATCC 35984. The description is as above. Conditions: Staphylococcus epidermidis, positive = prevention, negative = enhancement of biofilm formation, quadruplicate, read-out: average percentage reduction of biofilm formed relative to DMSO controls; for inhibition at 32 µM: ATCC35984, 32 μM; for inhibition at 160 µM: ATCC35984, 160 μM; for inhibition at 390 µM: ATCC35984, 390 μM. The method, then:
as §1, §2, §3, §4

Assay [3] concerns P. fluorescens strain ATCC 13525. Described as above. The conditions noted are these: Pseudomonas fluorescens, positive = prevention, negative = enhancement of biofilm formation, quadruplicate, read-out: average percentage reduction of biofilm formed relative to DMSO controls; for inhibition at 32 µM: ATCC13525, 32 μM; for inhibition at 160 µM: ATCC13525, 160 μM; for inhibition at 390 µM: ATCC13525, 390 μM. The method, then:
as §1, §2, §3, §4

The test system of assay [4] is P. aeruginosa strain PAO1. Nature of the assay: Improved biofilm dispersion screen (already-formed biofilms, crystal violet). Conditions: Pseudomonas aeruginosa, 30 mM NaOH step, positive = dispersion, negative = enhancement of pre-existing biofilm, quadruplicate, read-out: average percentage reduction of biofilm relative to the two control values (dispersion). On the procedure:
(§5) A modification of method disclosed in Reference Example 2, which greatly improves the sensitivity and reproducibility of the dispersion screen is hereby disclosed. […] In the modification described herein, compounds are added in the presence of the fresh liquid growth media, such that the resultant biofilms continue to grow, unless a test compound triggers their dispersion. Overnight cultures are made as above, and 100 μL of the appropriate liquid growth media are dispensed into duplicate 96 well microplates—in this fashion, two identical microplates are set up for each bacterial species to be assayed. Neither compounds nor DMSO are added prior to the inoculation of bacteria, and growth in the duplicate plates for 24 hours is allowed using the conditions specified in Reference Example 1. After growth of biofilm to be tested in the wells, cells present in biofilm attached to one of the duplicate microplates is stained with CV, quantitated as described in Reference Example 1, and the data for the entire plate averaged, resulting in a growth control value, t0. The remaining replicate of each microplate pairs is treated with compounds in DMSO, or DMSO alone for control wells, by first removing the cell suspensions from the wells, then adding fresh 100 μL volumes of the same appropriate liquid growth media, followed by direct addition and mixing of the compound DMSO solutions to give final compound concentrations of 390 μM. Incubation of the compound-containing microplates is then continued for an additional 22–26 hours using the same conditions described in Reference Example 1. Cell suspensions are then removed, 100 μL per well of a 0 mM NaOH (S. epidermidis), 20 mM NaOH (P. fluorescens), or 30 mM NaOH (P. aeruginosa) solution in PBS is added, and incubation at room temperature is allowed for 30 minutes. No addition of NaOH is made to the S. epidermidis suspension since a test assay indicated no amplification by base with S. epidermidis. The microplates are subsequently rinsed three times with 150 μL per well of PBS, followed by final liquid removal, staining with CV and quantitation as described in Reference Example 1. Data for each well that contained compound result in a compound value, R, and data for control wells that contained DMSO only are averaged to generate a second control value, t24. The effect of each compound tested on dispersion of the biofilm compared to the two control values is calculated thus: [formula] […] Data are expressed in terms of the average percentage reduction of biofilm formed in the presence of each compound, relative to the two control values, for quadruplicate samples. Assays are run as described above, using compound concentrations of 390 μM. Positive numbers indicate dispersion (reduction) of pre-existing biofilms by a compound, and negative numbers indicate enhancement (stimulation of growth) of pre-existing biofilms by a compound (percentage coefficients of variation are ≦15%).

For assay [5], the system named is S. epidermidis strain ATCC 35984. The description is as above. The conditions noted are these: Staphylococcus epidermidis, ATCC35984, no NaOH, positive = dispersion, negative = enhancement of pre-existing biofilm, quadruplicate, read-out: average percentage reduction of biofilm relative to the two control values (dispersion). The method, then:
as §5

For assay [6], the system named is P. fluorescens strain ATCC 13525. Described as above. Conditions: Pseudomonas fluorescens, ATCC13525, 20 mM NaOH step, positive = dispersion, negative = enhancement of pre-existing biofilm, quadruplicate, read-out: average percentage reduction of biofilm relative to the two control values (dispersion). The method, then: as §5

As to `CCCCCCNC(=O)C1CCCN1C(C)=O` (racemic) [Compound 7], the inhibition at 32 µM is -13% in assay [1], -10% in assay [2] and -11% in assay [3]. Besides, the values for the inhibition at 160 µM in assay [1], in assay [2] and in assay [3] were -20%, 6% and -30%, respectively. Also, the inhibition at 390 µM is -13% in assay [1]; -11% in assay [2]; -32% in assay [3]; -6% in assay [4]; 0% in assay [5]; -4% in assay [6].

For `CCCCCCCCNC(=O)C1CCCN1C(C)=O` (centres unmarked) [Compound 8], the inhibition at 32 µM in assay [1] is -9%; in assay [2] it was -13%; in assay [3] it was -12%. For the same molecule, the inhibition at 160 µM was -11% in assay [1], -22% in assay [2] and -26% in assay [3]. The inhibition at 390 µM was -9% in assay [1]; -32% in assay [2]; -24% in assay [3]; -30% in assay [4]; 0% in assay [5]; -1% in assay [6].

As to `CCCCCCCCCCNC(=O)C1CCCN1C(C)=O` (centres unmarked) [Compound 9], the values for the inhibition at 32 µM in assay [1], in assay [2] and in assay [3] were -6%, -21% and -6%, respectively. For the same molecule, the inhibition at 160 µM in assay [1] was -4%; in assay [2], -69%; in assay [3], -9%. Moreover, the inhibition at 390 µM in assay [1] is -26%; in assay [2], 33%; in assay [3], 0%; in assay [4], -68%; in assay [5], 21%; in assay [6], -1%.

As for `CCCCCCNC(=O)[C@@H]1CCCN1C(=O)OC(C)(C)C` [Compound 10], the inhibition at 32 µM was -7% in assay [1], -18% in assay [2] and -1% in assay [3]. Also, the inhibition at 160 µM in assay [1] is -16%; in assay [2], -17%; in assay [3] it was -5%. The inhibition at 390 µM was -16% in assay [1]; -25% in assay [2]; -6% in assay [3]; -9% in assay [4]; -6% in assay [5]; -2% in assay [6].

In the case of `CCCCCCCCNC(=O)[C@@H]1CCCN1C(=O)OC(C)(C)C` [Compound 11], the inhibition at 32 µM was -6% in assay [1], 10% in assay [2] and -4% in assay [3]. The inhibition at 160 µM in assay [1] is -18%; in assay [2], -60%; in assay [3], -6%. Besides, the inhibition at 390 µM was -15% in assay [1]; 37% in assay [2]; -26% in assay [3]; -56% in assay [4]; 0% in assay [5]; -23% in assay [6].

Turning to `CCCCCCCCCCNC(=O)[C@@H]1CCCN1C(=O)OC(C)(C)C` [Compound 12, N-(tert-Butoxycarbonyl)-L-proline n-decyl amide], the inhibition at 32 µM in assay [1] was 6%; in assay [2] it was -21%; in assay [3], -16%. Also, the inhibition at 160 µM in assay [1] was -45%; in assay [2] it was -2%; in assay [3], -42%. For the same molecule, the inhibition at 390 µM is -32% in assay [1]; 31% in assay [2]; -37% in assay [3]; -30% in assay [4]; 0% in assay [5]; -30% in assay [6].

Regarding `CCCCCCCCCCCCNC(=O)[C@@H]1CCN1C(=O)OC(C)(C)C` [Compound 286], the inhibition at 32 µM in assay [1] was -5%; in assay [2] it was -15%; in assay [3] it was -9%. Besides, the inhibition at 160 µM in assay [1] was -22%; in assay [2], -29%; in assay [3], -60%. Moreover, the inhibition at 390 µM in assay [1] is -54%; in assay [2], 12%; in assay [3], -98%; in assay [4], -83%; in assay [5] it was 0%.
